# Assay results from US10508077B2 (FORMA Therapeutics, Inc., priority 2015, dated 2019).
# Molecular target: T1, Full length human recombinant HDAC8 protein (Homo sapiens, UniProt Q9BY41)
# T1 construct: Full length human recombinant HDAC8 protein was expressed in baculoviral system; made in house
# T1 sequence (Q9BY41 1-377): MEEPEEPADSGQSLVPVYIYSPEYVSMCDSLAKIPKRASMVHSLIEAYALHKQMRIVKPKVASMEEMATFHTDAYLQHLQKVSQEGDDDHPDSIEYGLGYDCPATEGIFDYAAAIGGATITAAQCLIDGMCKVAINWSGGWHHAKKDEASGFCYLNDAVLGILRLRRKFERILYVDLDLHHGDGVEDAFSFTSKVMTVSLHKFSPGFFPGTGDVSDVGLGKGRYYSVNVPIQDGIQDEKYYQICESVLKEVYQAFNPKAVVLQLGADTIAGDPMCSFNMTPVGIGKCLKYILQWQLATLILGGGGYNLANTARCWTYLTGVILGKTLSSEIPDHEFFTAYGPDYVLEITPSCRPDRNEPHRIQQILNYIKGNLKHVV
# Assay: In vitro histone deacetylase assay: enzymatic HDAC8 assay, electrophoretic mobility shift
# Assay type: biochemical
# Conditions: substrate RHKK(Ac)-NH2, 1 nM enzyme, compounds listed under IC50 range headings
# Method in brief: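 Readout was microfluidic mobility-shift separation of deacetylated product from fluorescent RHKK(Ac)-NH2 substrate (2 µM), after reaction with 1 nM recombinant full-length human HDAC8 at 25 °C, pH 7.5, stopped with SDS. Twelve 3-fold-spaced concentrations tested; product/sum ratios normalized to controls and fitted with a 4-parameter model for IC50.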
row,Structure (SMILES),IC50 [nM]
1,"O=C(/C=C/c1ccccc1N1CCC(NC(=O)Cc2ccc(Cl)cc2)CC1)NO [Example I-13, (E)-3-(2-(4-(2-(4-chlorophenyl)acetamido)piperidin-1-yl)phenyl)-N-hydroxyacrylamide]",1000 to 10000
2,"CCCCCCN1CCN(c2ccccc2/C=C/C(=O)NO)CC1 [Example I-178, (E)-3-(2-(4-hexylpiperazin-1-yl)phenyl)-N-hydroxyacrylamide]",< 1000
3,"O=C(/C=C/c1ccccc1N1CCN(CCCc2ccccc2)CC1)NO [Example I-166, (E)-N-hydroxy-3-(2-(4-(3-phenylpropyl)piperazin-1-yl)phenyl)acrylamide]",< 1000
4,"O=C(/C=C/c1ccccc1NC(=O)C1(c2ccccc2)CC1)NO [Example I-64, (E)-N-(2-(3-(hydroxyamino)-3-oxoprop-1-en-1-yl)phenyl)-1-phenylcyclopropane-1-carboxamide]",< 1000
5,"O=C(/C=C/c1ccccc1N1CCN(Cc2ccc(F)cc2)CC1)NO [Example I-163, (E)-3-(2-(4-(4-fluorobenzyl)piperazin-1-yl)phenyl)-N-hydroxyacrylamide]",< 1000
6,"COc1cc(CC(=O)NC2CCN(c3ccccc3/C=C/C(=O)NO)CC2)ccc1O [Example I-139, (E)-N-hydroxy-3-(2-(4-(2-(4-hydroxy-3-methoxyphenyl)acetami-do)piperidin-1-yl)phenyl)acrylamide]",< 1000
7,"O=C(/C=C/c1ccccc1N1CCN(Cc2cc3c(cc2Cl)OCO3)CC1)NO [Example I-175, (E)-3-(2-(4-((6-chlorobenzo[d][1,3]dioxol-5-yl)methyl)piperazin-1-yl)phenyl)-N-hydroxyacrylamide]",< 1000
8,"Cn1ccnc1CN1CCN(c2ccccc2/C=C/C(=O)NO)CC1 [Example I-181, (E)-N-hydroxy-3-(2-(4-((1-methyl-1H-imidazol-2-yl)methyl)piperazin-1-yl)phenyl)acrylamide]",< 1000
9,"O=C(/C=C/c1ccccc1N1CCN(Cc2ccc3c(c2)OC(F)(F)O3)CC1)NO [Example I-173, (E)-3-(2-(4-((2,2-difluorobenzo[d][1,3]dioxol-5-yl)methyl)piperazin-1-yl)phenyl)-N-hydroxyacrylamide]",< 1000
10,O=C(/C=C/c1ccccc1N1CCC(NC(=O)c2ccoc2)CC1)NO [Example I-159],< 1000
11,"O=C(/C=C/c1ccccc1NCC1CCCCC1)NO [Example I-55, (E)-3-(2-((cyclohexylmethyl)amino)phenyl)-N-hydroxyacrylamide]",< 1000
12,"O=C(/C=C/c1ccccc1N1CCC(NC(=O)CSc2ccc(F)cc2)CC1)NO [Example I-129, (E)-3-(2-(4-(2-((4-fluorophenyl)thio)acet-amido)piperidin-1-yl)phenyl)-N-hydroxyacrylamide]",< 1000
13,"O=C(/C=C/c1ccccc1NCc1nc2ccc(CCCO)cc2[nH]1)NO [Example I-116, (E)-N-hydroxy-3-(2-(((6-(3-hydroxypropyl)-1H-benzo[d]imidazol-2-yl)methyl)amino)phenyl)acrylamide]",< 1000
14,"NC(=O)C1CCC2(CC1)CCN(c1ccccc1/C=C/C(=O)NO)CC2 [Example I-108, (E)-3-(2-(3-(hydroxyamino)-3-oxoprop-1-en-1-yl)phenyl)-3-azaspiro[5.5]undecane-9-carboxamide]",< 1000
15,"COc1ccc(CN2CCN(c3ccccc3/C=C/C(=O)NO)CC2)cc1 [Example I-172, (E)-N-hydroxy-3-(2-(4-(4-methoxybenzyl)piperazin-1-yl)phenyl)acrylamide]",< 1000
16,"O=C(/C=C/c1ccccc1NCc1ccc(Cl)cc1)NO [Example I-86, (E)-3-(2-((4-chlorobenzyl)amino)phenyl)-N-hydroxyacrylamide]",< 1000
17,"CN1CCC(C)(CN2CCN(c3ccccc3/C=C/C(=O)NO)CC2)CC1 [Example I-187, (E)-3-(2-(4-((1,4-dimethylpiperidin-4-yl)methyl)piperazin-1-yl)phenyl)-N-hydroxyacrylamide]",< 1000
18,"O=C(/C=C/c1ccccc1NC(=O)C1(O)CCC1)NO [Example I-6, (E)-1-hydroxy-N-(2-(3-(hydroxyamino)-3-oxoprop-1-en-1-yl)phenyl)cycobutane-1-carboxamide]",1000 to 10000
19,Cc1cccc(C(=O)NC2CCN(c3ccccc3/C=C/C(=O)NO)CC2)c1 [Example I-14],1000 to 10000
20,"Cc1ccccc1Oc1ncccc1C(=O)NC1CCN(c2ccccc2/C=C/C(=O)NO)CC1 [Example I-141, (E)-N-(1-(2-(3-(hydroxyamino)-3-oxoprop-1-en-1-yl)phenyl)piperdin-4-yl)-2-(o-tolyloxy)nicotinamide]",< 1000
21,"O=C(/C=C/c1ccccc1NC(=O)Nc1cccc(C(F)(F)F)c1)NO [Example I-5, (E)-N-hydroxy-3-(2-(3-(3-(trifluoromethyl)phenyl)ureido)phenyl)acrylamide]",1000 to 10000
22,CSc1ccc(CC(=O)NC2CCN(c3ccccc3/C=C/C(=O)NO)CC2)cc1 [Example I-156],< 1000

# Now from value to compound:
row,IC50 [nM],Structure (SMILES)
1,< 1000,"O=C(/C=C/c1ccccc1NC(=O)c1sc2ccccc2c1Cl)NO [Example I-269, (E)-3-chloro-N-(2-(3-(hydroxyamino)-3-oxoprop-1-en-1-yl)phenyl)benzo[b]thiophene-2-carboxamide]"
2,< 1000,"O=C(/C=C/c1ccccc1N1CCN(C(=O)Cc2cccs2)CC1)NO [Example I-196, (E)-N-hydroxy-3-(2-(4-(2-(thiophen-2-yl)acetyl)piperazin-1-yl)phenyl)acrylamide]"
3,< 1000,"O=C(/C=C/c1ccccc1C(=O)N1CCCCC1)NO [II-16, (E)-N-hydroxy-3-(2-(piperidine-1-carbonyl)phenyl)acrylamide]"
4,< 1000,"O=C(/C=C/c1ccccc1N1CCC(NCc2nccs2)CC1)NO [Example I-190, (E)-N-hydroxy-3-(2-(4-((thiazol-2-ylmethyl)amino)piperidin-1-yl)phenyl)acrylamide]"
5,< 1000,"O=C(/C=C/c1ccccc1N1CCC(NS(=O)(=O)c2ccc3c(c2)NC(=O)CO3)CC1)NO [Example I-236, (E)-N-hydroxy-3-(2-(4-((3-oxo-3,4-dihydro-2H-benzo[b][1,4]oxazine)-6-sulfonamido)piperidin-1-yl)phenyl)acrylamide]"
6,< 1000,"O=C(/C=C/c1ccccc1N1CCN(C(=O)Cc2ccccn2)CC1)NO [Example I-296, (E)-N-hydroxy-3-(2-(4-(2-(pyridin-2-yl)acetyl)piperazin-1-yl)phenyl)acrylamide]"
7,1000 to 10000,"O=C(/C=C/c1ccccc1C(=O)N1C2CCC1CC2)NO [II-12, (E)-3-(2-(7-azabicyclo[2.2.1]heptane-7-carbonyl)phenyl)-N-hydroxyacrylamide]"
8,< 1000,"O=C(/C=C/c1ccccc1C(=O)N1CCC(C(F)(F)F)CC1)NO [II-23, (E)-N-hydroxy-3-(2-(4-(trifluoromethyl)piperidine-1-carbonyl)phenyl)acrylamide]"
9,< 1000,"Cc1cc(C(=O)N2CCN(c3ccccc3/C=C/C(=O)NO)CC2)n[nH]1 [Example I-198, (E)-N-hydroxy-3-(2-(4-(5-methyl-1H-pyrazole-3-carbonyl)piperazin-1-yl)phenyl)acrylamide]"
10,< 1000,"CC(C)N(Cc1cccc(C(F)(F)F)c1)c1ccccc1/C=C/C(=O)NO [Example I-216, (E)-N-hydroxy-3-(2-(isopropyl(3-(trifluoromethyl)benzyl)amino)phenyl)acrylamide]"
11,< 1000,"COc1ccc(CC(=O)N2CCN(c3ccccc3/C=C/C(=O)NO)CC2)cc1 [Example I-195, (E)-N-hydroxy-3-(2-(4-(2-(4-methoxyphenyl)acetyl)pi-perazin-1-yl)phenyl)acrylamide]"
12,< 1000,"CS(=O)(=O)CCCC(=O)N1CCN(c2ccccc2/C=C/C(=O)NO)CC1 [Example I-201, (E)-N-hydroxy-3-(2-(4-(4-(methylsulfonyl)butanoyl)piperazin-1-yl)phenyl)acrylamide]"
13,< 1000,"O=C(/C=C/c1ccccc1N1CCN(C(=O)C2(C(F)(F)F)CC2)CC1)NO [Example I-322, (E)-N-hydroxy-3-(2-(4-(1-(trifluoromethyl)cyclopro-pane-1-carbonyl)piperazin-1-yl)phenyl)acrylamide]"
14,< 1000,"O=C(/C=C/c1ccccc1S(=O)(=O)C1CCN(Cc2ccccc2)CC1)NO [II-30, (E)-3-(2-((1-benzylpiperidin-4-yl)sulfonyl)phenyl)-N-hydroxyacrylamide]"
15,1000 to 10000,O=C(/C=C/c1ccccc1C(=O)Nc1ccc(-c2ccccc2)c(C(F)(F)F)c1)NO [II-1]
16,< 1000,O=C(/C=C/c1ccccc1N1CCN(S(=O)(=O)C2CCCC2)CC1)NO [Example I-250]
17,< 1000,"CC(C)c1ccc(S(=O)(=O)NC2CCN(c3ccccc3/C=C/C(=O)NO)CC2)cc1 [Example I-225, (E)-N-hydroxy-3-(2-(4-((4-isopropylphenyl)sulfon-amido)piperidin-1-yl)phenyl)acrylamide]"
18,< 1000,"Cc1nn(C)c(Cl)c1S(=O)(=O)N1CCN(c2ccccc2/C=C/C(=O)NO)CC1 [Example I-243, (E)-3-(2-(4-((5-chloro-1,3-dimethyl-1H-pyrazol-4-yl)sulfonyl)piperazin-1-yl)phenyl)-N-hydroxyacrylamide]"
19,< 1000,"O=C(/C=C/c1ccccc1N1CCN(S(=O)(=O)Cc2cccc(F)c2)CC1)NO [Example I-257, (E)-3-(2-(4-((3-fluorobenzyl)sulfonyl)piperazin-1-yl)phenyl)-N-hydroxyacrylamide]"
